Experimental data published in patent US20230012368A1 (Hoffmann-La Roche Inc., priority 2018, published 2023).
Where a name gives a salt, the structure may show the parent alone.

System: Acinetobacter baumannii ATCC 17978
Experiment: Antimicrobial susceptibility testing: 90% growth inhibitory concentration (IC90) determination
Format: cell-based
Conditions: 90% growth inhibitory concentration; Acinetobacter baumannii ATCC17978; Iso-Sensitest broth, OD 600 nm over 16h; read-out: ATCC17978 IC90
Summary of the method: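 Compounds serially twofold diluted (e.g. 50 to 0.097 μM final) in Iso-Sensitest broth, inoculated at ~5×10^(5) CFU/ml, incubated at 35±2° C. OD600 read every 20 minutes over 16h. IC90 taken as concentration inhibiting 90% of growth during logarithmic phase.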

Structure (SMILES) | IC90 [nM]
CCc1cc(Nc2nccn3c(-c4ccc(OC)c(F)c4F)cnc23)ccc1C(=O)NCCCCCCCCN [Example 540, N-(8-aminooctyl)-4-((3-(2,3-difluoro-4-methoxyphenyl)imidazo[1,2-a]pyrazin-8-yl)amino)-2-ethylbenzamide hydrochloride] | 100

Same assay, conditions: Acinetobacter baumannii, ATCC17978, 16 h, 90% growth inhibitory concentration; Acinetobacter baumannii ATCC17978; Iso-Sensitest broth, OD 600 nm over 16h; read-out: ATCC17978 IC90

Structure (SMILES) | IC90 [nM]
CCc1cc(Nc2nccn3c(-c4ccc(Oc5ccccn5)c(F)c4F)cnc23)ccc1C(=O)NCCCCCC(=O)N1CCN[C@H](CO)C1 [Example 478, 4-[[3-[2,3-difluoro-4-(2-pyridyloxy)phenyl]imidazo [1,2-a]pyrazin-8-yl]amino]-2-ethyl-N-[6-[(3S)-3-(hydroxymethyl)piperazin-1-yl]-6-oxo-hexyl]benzamide] | 380
COc1ccc(-c2cnc3c(Nc4ccc(C(=O)NCCNC(=O)[C@@H]5C[C@](C)(O)CN5)c(C)c4)nccn23)c(F)c1F [Example 372, (2S,4S)-N-[2-[[4-[[3-(2,3-difluoro-4-methoxyphenyl)imidazo[1,2-a]pyrazin-8-yl]amino]-2-methylbenzoyl]amino]ethyl]-4-hydroxy-4-methylpyrrolidine-2-carboxamide] | 150
CCc1cc(Nc2nccn3c(-c4ccc(OC)c(F)c4F)cnc23)ccc1C(=O)N[C@@H](C)CNC(=N)C(C)C [Example 503, 4-[[3-(2,3-difluoro-4-methoxyphenyl)imidazo[1,2-a]pyrazin-8-yl]amino]-2-ethyl-#N!-[(2#S!)-1-(2-methylpropanimidoylamino)propan-2-yl]benzamide] | 450
COc1ccc(-c2cnc3c(Nc4ccc(C(=O)N[C@@H](C)CNC(C)=N)c(C)c4)nccn23)c(F)c1F [Example 488, 4-[[3-(2,3-difluoro-4-methoxyphenyl)imidazo[1,2-a]pyrazin-8-yl]amino]-#N!- [(2#S!)-1-(ethanimidoylamino)propan-2-yl]-2-methylbenzamide;formic acid] | 290
COc1ccc(-c2cnc3c(Nc4ccc(C(=O)NCCCCCCN)c(C)c4)nccn23)cc1 [Example 10, N-(6-aminohexyl)-4-((3-(4-methoxyphenyl)imidazo [1,2-a]pyrazin-8-yl)amino)-2-methylbenzamide hydrochloride] | 110
CCc1cc(Nc2nccn3c(-c4ccc(OCC#N)c(F)c4F)cnc23)ccc1C(=O)NCCCN [Example 299, N-(3-aminopropyl)-4-[[3-[4-(cyanomethoxy)-2,3-difluorophenyl]imidazo[1,2-a]pyrazin-8-yl]amino]-2-ethylbenzamide;2,2,2-trifluoroacetic acid] | 180
CCc1cc(Nc2nccn3c(-c4ccc(OC)c(F)c4F)cnc23)ccc1C(=O)NC[C@H]1CCNC1 [Example 530, (S)-4-((3-(2,3-difluoro-4-methoxyphenyl)imidazo[1,2-a]pyrazin-8-yl)amino)-2-ethyl-N-(pyrrolidin-3-ylmethyl)benzamide hydrochloride] | 110
CCc1cc(Nc2nccn3c(-c4ccc(OC)c(F)c4F)cnc23)ccc1C(=O)N[C@H](C)CNC(=N)C(C)C [Example 502, 4-[[3-(2,3-difluoro-4-methoxyphenyl)imidazo[1,2-a]pyrazin-8-yl]amino]-2-ethyl-#N!-[(2#R!)-1-(2-methylpropanimidoylamino)propan-2-yl]benzamide] | 150
CCc1cc(Nc2nccn3c(-c4ccc(Oc5ccccn5)c(F)c4F)cnc23)ccc1C(=O)NCCNC(=O)[C@H](N)CCNC(=N)N [Example 426, N-[2-[[(2R)-2-amino-4-guanidino-butanoyl]amino]ethyl]-4-[[3-[2,3-difluoro-4-(2-pyridyloxy)phenyl]imidazo [1,2-a]pyrazin-8-yl]amino]-2-ethyl-benzamide; formic acid] | 820
CCc1cc(Nc2nccn3c(-c4ccc(OC)c(F)c4F)cnc23)ccc1C(=O)NCCCNC(=O)NCCCN [Example 120] | 140
COc1ccc(-c2cnc3c(Nc4ccc(C(=O)NCC5CCNC5)c(Cl)c4)nccn23)c(F)c1F (stereo not drawn) [Example 60, 2-chloro-4-[[3-(2,3-difluoro-4-methoxy-phenyl)imidazo[1,2-a]pyrazin-8-yl]amino]-N-(pyrrolidin-3-ylmethyl)benzamide] | 220
COc1ccc(-c2cnc3c(Nc4ccc(C(=O)NCCCCCN5CCNCC5)c(C)c4)nccn23)cc1F [Example 272, 4-[[3-(3-fluoro-4-methoxyphenyl)imidazo[1,2-a]pyrazin-8-yl]amino]-2-methyl-N-(5-piperazin-1-ylpentyl)benzamide;hydrochlo-ride] | 120
CCc1cc(Nc2nccn3c(-c4ccc(Oc5ncccn5)c(F)c4F)cnc23)ccc1C(=O)NCCCNC(=O)C1CCN(CC2CCNC2)CC1 (stereo not drawn) [Example 545, N-(3-(4-((3-(2,3-difluoro-4-(pyrimidin-2-yloxy)phenyl)imidazo[1,2-a]pyrazin-8-yl)amino)-2-ethylbenzamido)propyl)-1-(pyrrolidin-3-ylmethyl)piperidine-4-carboxamide formate] | 310
COc1ccc(-c2cnc3c(Nc4ccc(C(=O)NCC5CNCCO5)c(C)c4)nccn23)cc1F (stereo not drawn) [Example 232, 4-[[3-(3-fluoro-4-methoxyphenyl)imidazo[1,2-a]pyrazin-8-yl]amino]-2-methyl-N-(morpholin-2-ylmethyl)benzamide; hydrochlo-ride] | 1300
CCc1cc(Nc2nccn3c(-c4ccc(Cl)c(F)c4F)cnc23)ccc1C(=O)NCCNC(=O)[C@H](N)CCCNC(=N)N [Example 130, N-[2-[[(2R)-2-amino-5-guanidino-pentanoyl]amino]ethyl]-4-[[3-(4-chloro-2,3-difluoro-phenyl)imidazo[1,2-a]pyrazin-8-yl]amino]-2-ethyl-benzamide formate] | 640
Cc1cc(Nc2nccn3c(-c4ccc(OC(F)F)cc4)cnc23)ccc1C(=O)NCCCC[C@H](N)C(=O)O [Example 271, (2S)-2-amino-6-[[4-[[3-[4-(difluoromethoxy)phenyl]im-idazo[1,2-a]pyrazin-8-yl]amino]-2-methylbenzoyl]amino]hexa-noic acid] | 9300
COc1ccc(-c2cnc3c(Nc4ccc(C(=O)NCCCCCN)c(C)c4)nccn23)cc1 [Example 184, N-(5-aminopentyl)-4-[[3-(4-methoxyphenyl)imidazo[1,2-a]pyrazin-8-yl]amino]-2-methylbenzamide; hydrochlo-ride] | 220
CCc1cc(Nc2nccn3c(-c4ccc(Oc5cnn[nH]5)c(F)c4F)cnc23)ccc1C(=O)NCC1CCN(CC2CCNC2)CC1 (stereo not drawn) [Example 557, 4-[[3-[2,3-difluoro-4-(1#H!- triazol-5-yloxy)phenyl]imidazo[1,2-a]pyrazin-8-yl]amino]-2-ethyl-#N!-[[1-(pyrrolidin-3-ylmethyl)piperidin-4-yl]methyl]benzamide;formic acid] | 480
COc1ccc(-c2cnc3c(Nc4ccc(C(=O)N(C)C)cc4)nccn23)c(F)c1F [Example 107, 4-[[3-(2,3-difluoro-4-methoxy-phenyl)imidazo[1,2-a]pyrazin-4-yl]amino]-N,N-dimethyl-benzamide] | 120
COc1ccc(-c2cnc3c(Nc4ccc(C(=O)N(CCN5CCNCC5)CC(F)F)c(C)c4)nccn23)cc1F [Example 175, N-(2,2-difluoroethyl)-4-[[3-(3-fluoro-4-methoxyphenyl)imidazo[1,2-a]pyrazin-8-yl]amino]-2-methyl-N-(2-piperazin-1-ylethyl)benzamide;hydrochlo-ride] | 2300
